Assay [1] deals with CA1 pyramidal cells. Put plainly: Membrane response of CA1 pyramidal cells to local application of glutamate. In kind it is cell-based, rat. Conditions: 20 μl of 10 mM. The procedure:
(§1) Brain slices and electrophysiology. Male Sprague-Dawley rats (150-200 gm) were anesthetized with pentobarbital and the brains were removed and cooled rapidly in aCSF solution, bubbled continuously with 95% O2 and 5% CO2. Hippocampi were sliced ([…]) and placed in oxygenated aCSF (NaCl, 124 mM; KCl 3; MgSO4 1.3; CaCl2 2.4; NaHCO3 26; NaH2PO4 1.25; and glucose 10). The CA1 pyramidal cells were recorded at 30-31° C. with sharp electrodes (tip resistance: 60-120 MΩ). Study was performed on CA1 neurons with stable resting membrane potential more negative than −70 mV. Unless otherwise mentioned, test stimuli were applied at frequency of 1 per minute (0.017 Hz). Signals were amplified with AxoClamo-2B amplifier, digitized and stored using DigiData 1200 with the P-Clamp data collection and analysis software (Axon Instruments, Inc.).
(§2) Hypoxia. Episodes of hypoxia were induced by replacing the oxygen supply with 95% N2/5% O2/5% CO2 for 3 min or 95% N2/5% CO2 for 100 s. […]
(§3) The period of hypoxia is known to block synaptic transmission of glutarmatergic inputs^8, GABAergic input^8,10 and cholinergic inputs ^11,12, causing disconnection, or synaptic ‘arrest’, of CA1 neuronal network^8. […] Effects of brief hypoxia on synaptic transmission and of agents on hypoxic responses were monitored on responses of CA1 pyramidal cells to Sch activation. […]

For assay [2], the system named is CA1 pyramidal cells. Put plainly: Carbachol-induced cholinergic CA1 θ field potential and intracellular θ in hippocampal slices, with or without brief hypoxia. Type of assay: cell-based, rat. The procedure: as §1
Hypoxia. Episodes of hypoxia were induced by replacing the oxygen supply with […] for 3 min or 95% N2/5% CO2 for 100 s. […] The hypoxia is milder than those used by others to produce an irreversible impairment of synaptic transmission^25.
Effects of brief hypoxia on functions of CA1 neurons were monitored on synaptic transmission, long-term potentiation (LTP) of glutamatergic EPSPs, and cholinergic θ, a memory-related neuronal activity synchronization that depends on a temporal heterosynaptic interaction. Bath application of carbachol (50 μM, 20 min), a cholinergic receptor agonist, to hippocampal slices mimicked septal activation and diffuse acetylcholine transmission and induced CA1 θ field potential (FIG. 1a; peak amplitude: 0.73±0.02 mV, n=10, p<0.05, at 7.4±0.7 Hz from background noise). The θ is sensitive to atropine blockade and lasted for more than 3h^7. The θ oscillation of membrane potential (7.5±1.0 mV; n=18; p<0.05) was also observed in CA1 pyramidal cells (intracellular θ; FIG. 1b). […] LTP of responses to schaffer collateral (Sch) glutamatergic inputs (FIG. 1c,e), however, was not reduced, but enhanced, by the hypoxia (FIG. 1d,e), consistent with reported hypoxic LTP^8 and the observation that LTP expression is not vulnerable to transient hypoxia a few minutes after hypoxia.

Assay [3] deals with CA1 pyramidal cells. The experiment in a line: Sch-CA1 synaptic transmission (EPSPs) in hippocampal slices during brief hypoxia (synaptic arrest). In kind it is cell-based, rat. The procedure:
as §1, §2, §3

In assay [4] the test system is hypoxia rats. The experiment in a line: Hidden-platform water maze spatial learning and memory in rats subjected to brief hypoxia. Type of assay: in vivo, rat. Conditions: bilateral i.c.v. 400 nmoles/site. The procedure: The figure illustrates experimental protocol (FIG. 4a), escape latency (means±SEM) in water maze training (FIG. 4b) across 12 trials (F11,312=50.14, p<0.0001), and quadrant preference (FIGS. 4c, 4d and 4e) conducted at the end of the twelfth training session, and swimming distance (in 1 min; FIG. 4f). Rats were either subjected to air or hypoxia (95% N2/5% CO2 for 100 s) about 30 min in a glass jar after the 2nd-or 4th trial of the day. Bilateral i.c.v. CPDPX (400 nmoles/site) or vehicle were administered before the 2nd and 4th trials of the day. Quadrant 4 is the target quadrant during training.
Spatial maze tasks. Male adult Wistar rats (200-250 gm) were anesthetized with sodium pentobarbital (60 mg/kg, i.p) and placed in a stereotactic apparatus (Kopf Instruments, Tujunga, Calif.). Two stainless steel guide cannulas were placed with the tips positioned at the coordinates (anterior-posterior, 0.5 mm; lateral, 1.5 mm; horizontal, 3.2 mm), under aseptic conditions. A 7-day recovery period was allowed before any further experimentation. All rats were randomly assigned to different groups (10 each) and swam for 2 min in a 1.5 m (diameter)×0.6 m (depth) pool (22±1° C.). […]
One of the most persistent consequences of transient hypoxia/ischemia is amnesia. Effects of brief hypoxia and CPDPX on spatial learning (FIG. 4a) were evaluated in rats, using a hidden-platform water maze. […]

In assay [5] the target is T1, adenosine A1 receptor (Rattus norvegicus, UniProt P25099).
T1 sequence (P25099 1-326): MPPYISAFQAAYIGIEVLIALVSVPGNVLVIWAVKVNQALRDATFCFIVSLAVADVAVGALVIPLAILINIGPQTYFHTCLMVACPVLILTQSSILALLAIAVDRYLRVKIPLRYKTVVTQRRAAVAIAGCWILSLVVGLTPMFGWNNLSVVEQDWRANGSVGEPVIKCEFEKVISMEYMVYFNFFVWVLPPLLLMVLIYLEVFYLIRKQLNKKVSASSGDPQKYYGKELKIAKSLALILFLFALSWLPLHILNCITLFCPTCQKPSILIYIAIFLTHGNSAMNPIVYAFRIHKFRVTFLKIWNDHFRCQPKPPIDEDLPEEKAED
The conditions noted are these: cited from earlier work.

Data on 3 compounds can be found in patent US20040248909A1, “Adenosine a1 receptor antagonist for treating hypoxia-induced learning memory impairment” (priority 2001, published 2004).

For the compound `N[C@@H](CCC(=O)O)C(=O)O` [glutamate], the “peak inward current, control value” in assay [1] (local application before hypoxia) was 206.8±9.7 pA. In assay [1] (local application during last few seconds of 3 min hypoxia, n=7), this compound gave a peak inward current of 201.2±10.5 pA.

Consider `C[N+](C)(C)CCOC(N)=O` [carbachol], for which the “frequency of induced CA1 θ field potential” value in assay [2] (bath application 50 μM, 20 min) is reported as 7.4±0.7 Hz. Further, in assay [2] (bath application 50 μM, 20 min, n=10), the “induced CA1 θ field potential peak amplitude” value stood at 0.73±0.02 mV. For the same compound, in assay [2] (carbachol 50 μM, CA1 pyramidal cells, n=18), the “θ oscillation of membrane potential (intracellular θ)” value came out at 7.5±1.0 mV.

Turning to `CCCn1c(=O)c2[nH]c(C3CCCC3)nc2n(CCC)c1=O` [CPDPX, 8-cyclopentyl-1,3-dipropylxanthine], the “synaptic transmission at the end of the hypoxia versus control 100%” value in assay [3] (Sch-CA1 EPSPs, brief hypoxia 5% O2 3 min, 10 μM, n=7, p>0.05) was found to be 99.2±2.4%. Moreover, the “effect on hypoxic synaptic arrest” value in assay [3] (end of 3 min hypoxia, citicoline 100 μM, 8-cyclopentyl-1,3-dipropylxanthine 10 μM) was “synaptic arrest was abolished”. Moreover, the “intracellular θ after brief hypoxia (versus pre-hypoxia)” value in assay [2] (in presence of CPDPX, CA1 pyramidal cells, n=8, p>0.05) came out at 99.6±3.0%. The “θ activity after brief hypoxia (versus pre-hypoxia)” value in assay [2] (in presence of CPDPX, carbachol-induced CA1 θ, n=6, p>0.05) was 100.2±3.2%. Moreover, in assay [4] (24 hrs after last training trial, F3,36=169.7, p<0.0001), the “quadrant preference in quadrant test” value was “showed a preference for the target quadrant”. Also, the “effect on hypoxic impairment of spatial memory (escape latency)” value in assay [4] (hypoxia 95% N2/5% CO2 100 s) is on record as “eliminated hypoxic impairment on the spatial memory”. In addition, the “effect on adenosine-mediation of anoxia induced synaptic glutamate release in CA1 pyramidal neurons” value in assay [5] (Katchman et al. 1996) is “not affected”. Besides, the “effect on hypoxia-induced accumulation of adenosine” value in assay [5] (Pearson et al. 2000) is given as “mitigates hypoxia-induced accumulation of adenosine during hypoxia”.
